“And” between values parts separate entries of the source, which are not always exact repeats. Equal values may be shown once. Read-outs that look alike come from different tables or passages of the source. Values belong to the molecule of their own block, whether it stands above or below them.
Legend:
JAK2 = molecular target: T1, JAK2 (Homo sapiens, UniProt O60674); assay: JAK2 enzyme assay (Z'-LYTE kinase assay kit); format: biochemical
T1 construct: 0.05–0.42 ng JAK2, 2 μM peptide substrate (Tyr06)
T1 sequence (O60674 whole entry): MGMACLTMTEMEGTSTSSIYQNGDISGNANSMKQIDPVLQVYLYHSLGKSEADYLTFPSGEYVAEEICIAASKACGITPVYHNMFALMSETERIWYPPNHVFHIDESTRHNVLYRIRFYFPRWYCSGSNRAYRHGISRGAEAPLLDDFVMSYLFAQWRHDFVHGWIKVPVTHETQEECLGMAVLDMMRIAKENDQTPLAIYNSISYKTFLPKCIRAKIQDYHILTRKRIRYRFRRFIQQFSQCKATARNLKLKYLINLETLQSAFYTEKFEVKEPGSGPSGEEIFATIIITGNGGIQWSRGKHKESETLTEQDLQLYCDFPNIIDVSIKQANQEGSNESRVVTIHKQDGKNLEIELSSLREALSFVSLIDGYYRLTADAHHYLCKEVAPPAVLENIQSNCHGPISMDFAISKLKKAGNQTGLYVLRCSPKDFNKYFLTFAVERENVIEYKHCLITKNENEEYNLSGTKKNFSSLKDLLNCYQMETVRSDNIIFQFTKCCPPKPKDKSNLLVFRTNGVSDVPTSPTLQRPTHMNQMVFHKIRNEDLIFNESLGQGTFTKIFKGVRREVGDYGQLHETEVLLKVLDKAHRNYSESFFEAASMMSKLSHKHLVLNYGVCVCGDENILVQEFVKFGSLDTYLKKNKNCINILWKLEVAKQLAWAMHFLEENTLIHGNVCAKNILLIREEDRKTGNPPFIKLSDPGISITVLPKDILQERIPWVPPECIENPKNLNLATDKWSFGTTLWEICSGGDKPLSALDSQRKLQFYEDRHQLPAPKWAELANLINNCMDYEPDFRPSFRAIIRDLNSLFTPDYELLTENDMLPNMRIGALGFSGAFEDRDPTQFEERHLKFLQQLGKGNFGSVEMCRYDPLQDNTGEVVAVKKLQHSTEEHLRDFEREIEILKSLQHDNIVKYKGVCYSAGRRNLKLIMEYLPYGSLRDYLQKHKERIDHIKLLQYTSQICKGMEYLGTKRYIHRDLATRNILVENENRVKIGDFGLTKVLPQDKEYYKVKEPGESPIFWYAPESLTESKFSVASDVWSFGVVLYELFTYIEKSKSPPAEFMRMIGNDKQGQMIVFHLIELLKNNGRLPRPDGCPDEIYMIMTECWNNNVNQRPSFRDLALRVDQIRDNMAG

HEL cells = assay: Cell proliferation assay (CCK-8), HEL cells; format: cell-based, human; conditions: for Inhibition (%): single wells, replicates 1 and 2
Description: (§1) The human erythroid leukemia (HEL 92.1.7) cells were purchased from the American Type Culture Collection (ATCC, TIB-180), and the human megakaryoblastic (SET2) cells were obtained from German Collection of Microorganisms and Cell Cultures (DSMZ, ACC 608). The anti-proliferative activities of compounds were evaluated using WST-8 cell counting kit-8 (Elabscience). HEL and SET-2 cells were seeded at 5000 cells/well in 70 μL RPMI-1640 medium (Hyclon) with 10% FBS (Gibco) to the 96-well plate and incubated overnight at 37 °C with 5% CO2. The compounds were serially diluted in RPMI-1640 medium, and cells were treated separately with 30 μL various concentrations of compounds for 72 h. The final DMSO concentration in the culture wells was 0.1%, which had no effect on the cell viability. Finally, 10 μL of CCK-8 solution was added into the wells. 4 h later, the absorbance values at 450 nm were recorded. IC50 values were determined using GraphPad Prism v8.3.0, and three parallel experiments were performed.

SET-2 cells = assay: Cell proliferation assay (CCK-8), SET-2 cells; format: cell-based, human; conditions: for Inhibition (%): single wells, replicates 1 and 2
Description: as §1

[1] = Chemical stability in DMSO stock solution (HPLC purity); format: physicochemical; conditions: mean±SD
Source text: compounds were formulated in the solubilizing vehicle (5% DMSO/30% PEG400/65% […]
safety to the mice in the test.
6. What was the sample dissolved in for the in vitro and in vivo experiments? Response: The solvent information for the in vitro and in vivo experiments has been added in the revised manuscript. […]
7. Was the stability of the different compounds assessed and compared to Fedratinib? This is generally a critical point in macrocyclic studies. […]
in DMSO stock solution. Test compounds were incubated at room temperature and 60 ℃, respectively, for 72 h, and their purities (%) were determined using HPLC equipped with a CORTECS C18 column (4.6*50 mm, 2.7 μm particle size) and a UV/VIS detector setting of λ=210 nm. All co mpounds were eluted with the two solvent systems ([…] as organic phase in Method I and CH3OH as organic phase in Method II) at a flow rate of 0.3 ml/min. Each experiment repeated for three times and the results are represented as mean±SD.
Ta b e l R 1 . Comparison of chemical stability of different compounds at room temperature and 60 ℃, respectively.

DSS-induced colitis mice = assay: In vivo efficacy study, DSS-induced colitis model; parameters: species or system male BALB/c mice; conditions: SASP 500 mg/kg; for Body weight (Fig. 6a) / DAI score (Fig. 6b): individual mice

- IC50 (JAK2; JAK2, 25 μM ATP, mean ± SD, n = 3, read-out: Enzyme Inhibitory Activity (IC50)): 0.364 µM
- IC50 (JAK2; JAK2 enzyme, mean of 3 replicates, read-out: IC50/μM mean, enzyme inhibitory activity): 0.364 µM
- IC50 (JAK2; JAK2 enzyme, mean ± SD of 3 replicates, read-out: IC50/μM mean ± SD, enzyme inhibitory activity): 0.364 ± 0.007 µM
- IC50 (JAK2; JAK2 enzyme, single-replicate fits (replicates 1-3), read-out: IC50/μM (individual replicates), enzyme inhibitory activity): 0.366 µM and 0.356 µM and 0.37 µM
- purity after incubation in DMSO stock solution ([1]; 60 ℃, 0 h): 99.59±0.13%
- purity after incubation in DMSO stock solution ([1]; 60 ℃, 2 h): 99.60±0.06%
- purity after incubation in DMSO stock solution ([1]; 60 ℃, 24 h): 100.00±0.00%
- purity after incubation in DMSO stock solution ([1]; 60 ℃, 48 h): 99.61±0.01%
- purity after incubation in DMSO stock solution ([1]; 60 ℃, 72 h): 99.43±0.09%
- purity after incubation in DMSO stock solution ([1]; Room Temperature, 0 h): 99.65±0.05%
- purity after incubation in DMSO stock solution ([1]; Room Temperature, 2 h): 99.65±0.05%
- purity after incubation in DMSO stock solution ([1]; Room Temperature, 24 h): 100.00±0.00%
- purity after incubation in DMSO stock solution ([1]; Room Temperature, 48 h): 99.99±0.01%
- purity after incubation in DMSO stock solution ([1]; Room Temperature, 72 h): 99.50±0.06%
Structure (SMILES): Cc1cnc2nc1Nc1cccc(c1)C(=O)N(C)Cc1cc(ccc1OCCN1CCCC1)N2 [Compound 2]
- Inhibition (%) (HEL cells; HEL cell lines, 0.0977 μM): 2.051% and -1.891% and 1.838% and 11.186% and -5.882% and -1.006%
- Inhibition (%) (HEL cells; HEL cell lines, 0.1953 μM): 0.772% and 1.838% and 2.477% and 15.575% and -7.833% and -8.321%
- Inhibition (%) (HEL cells; HEL cell lines, 0.3906 μM): 2.264% and 1.518% and 1.625% and 18.866% and -1.250% and -7.345%
- Inhibition (%) (HEL cells; HEL cell lines, 0.7813 μM): 10.786% and 8.762% and 8.549% and 18.744% and 6.553% and -6.614%
- Inhibition (%) (HEL cells; HEL cell lines, 1.5625 μM): 18.882% and 12.064% and 2.264% and 20.207% and 10.332% and -0.152%
- Inhibition (%) (HEL cells; HEL cell lines, 3.1250 μM, 3.125 µM): 25.273% and 19.521% and 12.916% and 41.664% and 20.207% and 14.721%
- Inhibition (%) (HEL cells; HEL cell lines, 6.2500 μM, 6.25 µM): 42.104% and 34.754% and 32.197% and 45.931% and 34.837% and 31.058%
- Inhibition (%) (HEL cells; HEL cell lines, 12.5000 μM, 12.5 µM): 71.398% and 70.120% and 69.694% and 81.042% and 74.825% and 72.874%
- IC50 (HEL cells; HEL cell lines, mean of 2 replicates, read-out: IC50/μM mean, cellular antiproliferative activity): 7.34 µM
- IC50 (HEL cells; HEL cell lines, mean ± sd of 2 replicates, read-out: IC50/μM mean ± sd, cellular antiproliferative activity): 7.34 ± 0.44 µM
- IC50 (HEL cells; HEL cell lines, single-replicate fits, read-out: IC50/μM (individual replicates), cellular antiproliferative activity): 7.03 µM and 7.65 µM
- IC50 (HEL cells; HEL cells, 72 h, mean ± SD, read-out: Cellular Antiproliferative Activity (IC50) HEL): 7.34 ± 0.44 µM
- Inhibition (%) (SET-2 cells; SET-2 cell lines, 0.0977 μM): 7.592% and 1.623% and 1.518% and -0.378% and 0.918% and 6.534%
- Inhibition (%) (SET-2 cells; SET-2 cell lines, 0.1953 μM): 8.325% and -1.100% and -4.241% and -2.322% and 3.294% and 8.909%
- Inhibition (%) (SET-2 cells; SET-2 cell lines, 0.3906 μM): 0.681% and -1.309% and -10.209% and -2.322% and 6.965% and 5.562%
- Inhibition (%) (SET-2 cells; SET-2 cell lines, 0.7813 μM): -8.429% and 1.100% and -6.440% and -0.270% and 5.886% and 6.102%
- Inhibition (%) (SET-2 cells; SET-2 cell lines, 1.5625 μM): -4.869% and -5.916% and -2.880% and 1.998% and 4.914% and -0.162%
- Inhibition (%) (SET-2 cells; SET-2 cell lines, 3.1250 μM, 3.125 µM): 4.031% and -0.576% and -2.984% and 1.674% and 9.233% and -1.350%
- Inhibition (%) (SET-2 cells; SET-2 cell lines, 6.2500 μM, 6.25 µM): 8.744% and 16.702% and 4.555% and 8.801% and 8.153% and 7.613%
- Inhibition (%) (SET-2 cells; SET-2 cell lines, 12.5000 μM, 12.5 µM): 20.471% and 17.330% and 11.885% and 18.953% and 16.793% and 14.741%
- IC50 (SET-2 cells; SET-2 cell lines, single-replicate fits, read-out: IC50/μM (individual replicates), cellular antiproliferative activity): > 25 µM
- IC50 (SET-2 cells; SET-2 cells, 72 h, mean ± SD, read-out: Cellular Antiproliferative Activity (IC50) SET-2): > 25 µM

Structure (SMILES): O=C(O)c1cc(/N=N/c2ccc(S(=O)(=O)Nc3ccccn3)cc2)ccc1O [Salicylazosulfapyridine]
- Body weight (Fig. 6a) (DSS-induced colitis mice; day 0): 22.7 and 23.7 and 19.3 and 23.6 and 21.6 and 22.9 and 21.7 (2×)
- DAI score (Fig. 6b) (DSS-induced colitis mice; day 0): 0
- DAI score (Fig. 6b) (DSS-induced colitis mice; day 1): 0 (7×) and 1
- Body weight (Fig. 6a) (DSS-induced colitis mice; day 1, in g (unit assumed)): 23.2 and 23.6 and 22.1 and 24.5 and 21.4 and 22.4 and 22 and 22.5
- DAI score (Fig. 6b) (DSS-induced colitis mice; day 2): 0 (7×) and 1
- Body weight (Fig. 6a) (DSS-induced colitis mice; day 2, in g (unit assumed)): 23.3
- DAI score (Fig. 6b) (DSS-induced colitis mice; day 3): 1 (6×) and 0 (2×)
- DAI score (Fig. 6b) (DSS-induced colitis mice; day 4): 4 and 2 and 1 (4×) and 3 and 0
- Body weight (Fig. 6a) (DSS-induced colitis mice; day 4, in g (unit assumed)): 22.3 and 22.4 and 22.1 and 23.7 and 20.4 and 22.9 and 21.3 and 22.8
- DAI score (Fig. 6b) (DSS-induced colitis mice; day 5): 4 and 2 (4×) and 1 (2×) and 6
- Body weight (Fig. 6a) (DSS-induced colitis mice; day 5, in g (unit assumed)): 20.8 and 20.9 and 21.8 and 22.6 and 19.7 and 21.4 and 20.2 and 21.2
- DAI score (Fig. 6b) (DSS-induced colitis mice; day 6): 5 (4×) and 7 and 3 and 1 (2×)
- Body weight (Fig. 6a) (DSS-induced colitis mice; day 6, in g (unit assumed)): 19 and 19.1 and 21.1 and 21.3 and 18.6 and 19.3 and 19.2 and 20.2
- DAI score (Fig. 6b) (DSS-induced colitis mice; day 7): 8 and 6 and 1 and 4 and 5 (2×) and 3 and 2
- Body weight (Fig. 6a) (DSS-induced colitis mice; day 7, in g (unit assumed)): 16.8 and 17.9 and 20.5 and 20.7 and 18.1 and 17.6 and 17 and 18.6
- DAI score (Fig. 6b) (DSS-induced colitis mice; day 8): 2 (2×) and 5 and 1 (3×) and 0 (2×)
- Body weight (Fig. 6a) (DSS-induced colitis mice; day 8, in g (unit assumed)): 16.9 and 16.6 and 19.6 and 19.9 and 16.5 and 17.3 and 18.4 and 19.2
- Body weight (Fig. 6a) (DSS-induced colitis mice; day 9): 18 (2×) and 17.2 and 19.6 and 20.6 and 15.7 and 19.4 and 20.8
- DAI score (Fig. 6b) (DSS-induced colitis mice; day 9): 0 (7×) and 1
- DAI score (Fig. 6b) (DSS-induced colitis mice; day 10): 2 (4×) and 1 (2×) and 3 and 0
- Body weight (Fig. 6a) (DSS-induced colitis mice; day 10, in g (unit assumed)): 17.1 and 16.7 and 19.2 and 21.8 and 17.6 and 20.2 and 22.1
- DAI score (Fig. 6b) (DSS-induced colitis mice; day 11): 0 (5×) and 1 (2×)
- Body weight (Fig. 6a) (DSS-induced colitis mice; day 11, in g (unit assumed)): 17.6 and 16.3 and 19.7 and 21.9 and 19.1 and 19.8 and 22.6
- DAI score (Fig. 6b) (DSS-induced colitis mice; day 12): 0
- Body weight (Fig. 6a) (DSS-induced colitis mice; day 12, in g (unit assumed)): 19 and 17.1 and 20.3 and 22.2 and 19.5 and 21.5 and 22.4
- Body weight (Fig. 6a) (DSS-induced colitis mice; day 13, in g (unit assumed)): 18.8 and 17.7 and 20 and 23.6 and 20.2 and 21.5 and 22.6
- Body weight (Fig. 6a) (DSS-induced colitis mice; day 14, in g (unit assumed)): 19.5 and 18.6 and 19.8 and 24.4 and 21 and 22.1 and 22.5
- HE staining score (Fig. 6d) (DSS-induced colitis mice; individual colon tissues (n = 8)): 3 and 1 and 2

From publication PMC10382584, “Macrocyclization of linear molecules by deep learning to facilitate macrocyclic drug candidates discovery” (Nature Communications, 2023)
